Tested on: total bacteria (bacterial purine)
Assay: In vitro microbe measurements: bacterial purine (total bacteria)
Assay type: cell-based, cattle
Conditions: alfalfa; monensin 6 ppm
Text: Proprionate is largely responsible for animal growth. […] There appears to be no effect on alfalfa protozoa and alfalfa bacterial purine by the beta acids. Again, reduction in protozoa and bacteria levels means more food and energy for animal growth.

SMILES: CC[C@@]1([C@@H]2O[C@@H]([C@H]3O[C@@](O)(CO)[C@H](C)C[C@@H]3C)C[C@@H]2C)CC[C@H]([C@]2(C)CC[C@]3(C[C@H](O)[C@@H](C)[C@@H]([C@@H](C)[C@@H](OC)[C@H](C)C(=O)O)O3)O2)O1 [monensin]
- elimination of protozoa and bacterial purines: most effectively eliminate

Source: patent US8197863B2, “Hop acids as a replacement for antibiotics in animal feed” (John I. Haas, Inc., priority 2002, dated 2012)
